In brackets after ≈: the same amount, converted by molar mass.
Key:
Assay type in all cases: cell-based
S. aureus = assay: MIC values, S. aureus (Tables 1-4)
S. pneumo. = assay: MIC values, S. pneumo. (Tables 1-4)
E. faecalis = assay: MIC values, E. faecalis (Tables 1-4)
H. flu = system: H. flu
E. coli = assay: MIC values, E. coli (Tables 1-4)

SMILES | MIC S. aureus (S. aureus) | MIC S. pneumo. (S. pneumo.) | MIC E. faecalis (E. faecalis) | MIC H. flu (H. flu) | MIC E. coli (E. coli)
CO[C@H]1/C=C/O[C@@]2(C)Oc3c(C)c(O)c4c(=O)c(c5oc6cc(N7CCN(CCN(C)C)CC7)cc(O)c6nc-5c4c3C2=O)NC(=O)/C(C)=C\C=C\[C@H](C)[C@H](O)[C@@H](C)[C@@H](O)[C@@H](C)[C@H](O)[C@@H]1C [Compound 103] | 0.03 µg/mL (≈ 0.0328 µM) | 0.008 µg/mL (≈ 0.00875 µM) | 0.5 µg/mL (≈ 0.547 µM) | 0.12 µg/mL (≈ 0.131 µM) | >8 µg/mL
CO[C@H]1/C=C/O[C@@]2(C)Oc3c(C)c(O)c4c(=O)c(c5sc6cc(N7CCN(C)CC7)ccc6nc-5c4c3C2=O)NC(=O)/C(C)=C\C=C\[C@H](C)[C@H](O)[C@@H](C)[C@@H](O)[C@@H](C)[C@H](O)[C@@H]1C [Compound 104] | 0.002 µg/mL (≈ 0.00233 µM) | 0.00012 µg/mL (≈ 0.00014 µM) | 0.12 µg/mL (≈ 0.14 µM) | 0.12 µg/mL (≈ 0.14 µM) | 2 µg/mL (≈ 2.33 µM)
CO[C@H]1/C=C/O[C@@]2(C)Oc3c(C)c(O)c4c(=O)c(c5oc6cc(N7CCN(CCF)CC7)cc(O)c6nc-5c4c3C2=O)NC(=O)/C(C)=C\C=C\[C@H](C)[C@H](O)[C@@H](C)[C@@H](O)[C@@H](C)[C@H](O)[C@@H]1C [Compound 105] | 0.004 µg/mL (≈ 0.0045 µM) | 0.001 µg/mL (≈ 0.00112 µM) | 0.12 µg/mL (≈ 0.135 µM) | 0.12 µg/mL (≈ 0.135 µM) | 8 µg/mL (≈ 9 µM)
CO[C@H]1/C=C/O[C@@]2(C)Oc3c(C)c(O)c4c(=O)c(c5oc6cc(N7CCN(c8ncccn8)CC7)cc(O)c6nc-5c4c3C2=O)NC(=O)/C(C)=C\C=C\[C@H](C)[C@H](O)[C@@H](C)[C@@H](O)[C@@H](C)[C@H](O)[C@@H]1C [Compound 106] | 0.004 µg/mL (≈ 0.00434 µM) | 0.0005 µg/mL (≈ 0.000543 µM) | 0.25 µg/mL (≈ 0.271 µM) | 0.12 µg/mL (≈ 0.13 µM) | >8 µg/mL
CO[C@H]1/C=C/O[C@@]2(C)Oc3c(C)c(O)c4c(=O)c(c5oc6cc(N7CCNCC7)cc(O)c6nc-5c4c3C2=O)NC(=O)/C(C)=C\C=C\[C@H](C)[C@H](O)[C@@H](C)[C@@H](O)[C@@H](C)[C@H](O)[C@@H]1C [Compound 107] | 0.008 µg/mL (≈ 0.00949 µM) | 0.002 µg/mL (≈ 0.00237 µM) | 0.06 µg/mL (≈ 0.0712 µM) | 0.12 µg/mL (≈ 0.142 µM) | 4 µg/mL (≈ 4.75 µM)
CCOc1c(N2CCN(CC3CC3)CC2)ccc2nc3c4c5c6c(C)c(O)c4c(=O)c(c-3oc12)NC(=O)/C(C)=C\C=C\[C@H](C)[C@H](O)[C@@H](C)[C@@H](O)[C@@H](C)[C@H](O)[C@H](C)[C@@H](OC)/C=C/O[C@@](C)(O6)C5=O [Compound 108] | 0.03 µg/mL (≈ 0.0324 µM) | 0.015 µg/mL (≈ 0.0162 µM) | 0.5 µg/mL (≈ 0.54 µM) | 1 µg/mL (≈ 1.08 µM) | >8 µg/mL
CO[C@H]1/C=C/O[C@@]2(C)Oc3c(C)c(O)c4c(=O)c(c5oc6c(F)c(N7CCN(CC(C)C)CC7)ccc6nc-5c4c3C2=O)NC(=O)/C(C)=C\C=C\[C@H](C)[C@H](O)[C@@H](C)[C@@H](O)[C@@H](C)[C@H](O)[C@@H]1C [Compound 109] | 0.03 µg/mL (≈ 0.0333 µM) | 0.008 µg/mL (≈ 0.00888 µM) | 0.5 µg/mL (≈ 0.555 µM) | 0.5 µg/mL (≈ 0.555 µM) | 8 µg/mL (≈ 8.88 µM)
CO[C@H]1/C=C/O[C@@]2(C)Oc3c(C)c(O)c4c(=O)c(c5oc6cc(N7CCN(C(=O)C8CC8)CC7)cc(O)c6nc-5c4c3C2=O)NC(=O)/C(C)=C\C=C\[C@H](C)[C@H](O)[C@@H](C)[C@@H](O)[C@@H](C)[C@H](O)[C@@H]1C [Compound 110] | 0.015 µg/mL (≈ 0.0165 µM) | 0.004 µg/mL (≈ 0.00439 µM) | 0.5 µg/mL (≈ 0.549 µM) | 0.25 µg/mL (≈ 0.274 µM) | 8 µg/mL (≈ 8.78 µM)
CCc1cc2nc3c4c5c6c(C)c(O)c4c(=O)c(c-3oc2cc1N1CCCCC1)NC(=O)/C(C)=C\C=C\[C@H](C)[C@H](O)[C@@H](C)[C@@H](O)[C@@H](C)[C@H](O)[C@H](C)[C@@H](OC)/C=C/O[C@@](C)(O6)C5=O [Compound 111] | 1 µg/mL (≈ 1.17 µM) | 0.12 µg/mL (≈ 0.141 µM) | 4 µg/mL (≈ 4.68 µM) | 2 µg/mL (≈ 2.34 µM) | 1 µg/mL (≈ 1.17 µM)
CO[C@H]1/C=C/O[C@@]2(C)Oc3c(C)c(O)c4c(=O)c(c5oc6cc(N7CCC(C(N)=O)CC7)cc(O)c6nc-5c4c3C2=O)NC(=O)/C(C)=C\C=C\[C@H](C)[C@H](O)[C@@H](C)[C@@H](O)[C@@H](C)[C@H](O)[C@@H]1C [Compound 112] | 0.03 µg/mL (≈ 0.0339 µM) | 0.002 µg/mL (≈ 0.00226 µM) | 1 µg/mL (≈ 1.13 µM) | 0.25 µg/mL (≈ 0.282 µM) | >8 µg/mL
CCOC(=O)C1CCN(c2cc(O)c3nc4c5c6c7c(C)c(O)c5c(=O)c(c-4oc3c2)NC(=O)/C(C)=C\C=C\[C@H](C)[C@H](O)[C@@H](C)[C@@H](O)[C@@H](C)[C@H](O)[C@H](C)[C@@H](OC)/C=C/O[C@@](C)(O7)C6=O)CC1 [Compound 113] | 0.004 µg/mL (≈ 0.00438 µM) | 0.008 µg/mL (≈ 0.00875 µM) | 0.5 µg/mL (≈ 0.547 µM) | 0.12 µg/mL (≈ 0.131 µM) | >8 µg/mL
CO[C@H]1/C=C/O[C@@]2(C)Oc3c(C)c(O)c4c(=O)c(c5oc6cc(N7CCC(F)CC7)ccc6nc-5c4c3C2=O)NC(=O)/C(C)=C\C=C\[C@H](C)[C@H](O)[C@@H](C)[C@@H](O)[C@@H](C)[C@H](O)[C@@H]1C [Compound 114] | 0.03 µg/mL (≈ 0.0355 µM) | 0.008 µg/mL (≈ 0.00948 µM) | 0.5 µg/mL (≈ 0.592 µM) | 0.12 µg/mL (≈ 0.142 µM) | 8 µg/mL (≈ 9.48 µM)
CO[C@H]1/C=C/O[C@@]2(C)Oc3c(C)c(O)c4c(=O)c(c5oc6cc(N7CCC(F)(F)CC7)ccc6nc-5c4c3C2=O)NC(=O)/C(C)=C\C=C\[C@H](C)[C@H](O)[C@@H](C)[C@@H](O)[C@@H](C)[C@H](O)[C@@H]1C [Compound 115] | 0.03 µg/mL (≈ 0.0348 µM) | 0.015 µg/mL (≈ 0.0174 µM) | 1 µg/mL (≈ 1.16 µM) | 0.25 µg/mL (≈ 0.29 µM) | >8 µg/mL
CO[C@H]1/C=C/O[C@@]2(C)Oc3c(C)c(O)c4c(=O)c(c5oc6cc(N7CCCC7)c(C7CCCCC7)cc6nc-5c4c3C2=O)NC(=O)/C(C)=C\C=C\[C@H](C)[C@H](O)[C@@H](C)[C@@H](O)[C@@H](C)[C@H](O)[C@@H]1C [Compound 118] | 2 µg/mL (≈ 2.24 µM) | 0.25 µg/mL (≈ 0.28 µM) | >8 µg/mL | 8 µg/mL (≈ 8.95 µM) | >8 µg/mL
CO[C@H]1/C=C/O[C@@]2(C)Oc3c(C)c(O)c4c(=O)c(c5oc6c(C)c(N7CCCC7)cc(C)c6nc-5c4c3C2=O)NC(=O)/C(C)=C\C=C\[C@H](C)[C@H](O)[C@@H](C)[C@@H](O)[C@@H](C)[C@H](O)[C@@H]1C [Compound 119] | 0.5 µg/mL (≈ 0.595 µM) | 0.5 µg/mL (≈ 0.595 µM) | 2 µg/mL (≈ 2.38 µM) | 2 µg/mL (≈ 2.38 µM) | >8 µg/mL
CO[C@H]1/C=C/O[C@@]2(C)Oc3c(C)c(O)c4c(=O)c(c5oc6cc(N7CCCC7)c(C)c(C)c6nc-5c4c3C2=O)NC(=O)/C(C)=C\C=C\[C@H](C)[C@H](O)[C@@H](C)[C@@H](O)[C@@H](C)[C@H](O)[C@@H]1C [Compound 120] | 0.5 µg/mL (≈ 0.595 µM) | 0.06 µg/mL (≈ 0.0714 µM) | 4 µg/mL (≈ 4.76 µM) | 1 µg/mL (≈ 1.19 µM) | >8 µg/mL
COc1c(N2CCCC2)cc(C)c2nc3c4c5c6c(C)c(O)c4c(=O)c(c-3oc12)NC(=O)/C(C)=C\C=C\[C@H](C)[C@H](O)[C@@H](C)[C@@H](O)[C@@H](C)[C@H](O)[C@H](C)[C@@H](OC)/C=C/O[C@@](C)(O6)C5=O [Compound 121] | 0.06 µg/mL (≈ 0.0701 µM) | 0.03 µg/mL (≈ 0.035 µM) | 2 µg/mL (≈ 2.34 µM) | 0.12 µg/mL (≈ 0.14 µM) | 8 µg/mL (≈ 9.35 µM)
CO[C@H]1/C=C/O[C@@]2(C)Oc3c(C)c(O)c4c(=O)c(c5oc6cc(N7CCCC7)c(F)cc6nc-5c4c3C2=O)NC(=O)/C(C)=C\C=C\[C@H](C)[C@H](O)[C@@H](C)[C@@H](O)[C@@H](C)[C@H](O)[C@@H]1C [Compound 123] | 0.03 µg/mL (≈ 0.0361 µM) | 0.06 µg/mL (≈ 0.0723 µM) | 1 µg/mL (≈ 1.2 µM) | 0.12 µg/mL (≈ 0.145 µM) | 8 µg/mL (≈ 9.64 µM)
CO[C@H]1/C=C/O[C@@]2(C)Oc3c(C)c(O)c4c(=O)c(c5oc6cc(N7CCCN(C)CC7)cc(O)c6nc-5c4c3C2=O)NC(=O)/C(C)=C\C=C\[C@H](C)[C@H](O)[C@@H](C)[C@@H](O)[C@@H](C)[C@H](O)[C@@H]1C [Compound 124] | 0.004 µg/mL (≈ 0.00459 µM) | 0.00012 µg/mL (≈ 0.000138 µM) | 0.03 µg/mL (≈ 0.0344 µM) | 0.25 µg/mL (≈ 0.287 µM) | 4 µg/mL (≈ 4.59 µM)
CO[C@H]1/C=C/O[C@@]2(C)Oc3c(C)c(O)c4c(=O)c(c5sc6cc(N7CCCN(C)CC7)ccc6nc-5c4c3C2=O)NC(=O)/C(C)=C\C=C\[C@H](C)[C@H](O)[C@@H](C)[C@@H](O)[C@@H](C)[C@H](O)[C@@H]1C [Compound 125] | 0.002 µg/mL (≈ 0.0023 µM) | 0.00025 µg/mL (≈ 0.000287 µM) | 0.25 µg/mL (≈ 0.287 µM) | 0.12 µg/mL (≈ 0.138 µM) | 2 µg/mL (≈ 2.3 µM)
CO[C@H]1/C=C/O[C@@]2(C)Oc3c(C)c(O)c4c(=O)c(c5oc6c(C)c(N7CCC7)cc(C)c6nc-5c4c3C2=O)NC(=O)/C(C)=C\C=C\[C@H](C)[C@H](O)[C@@H](C)[C@@H](O)[C@@H](C)[C@H](O)[C@@H]1C [Compound 126] | 0.03 µg/mL (≈ 0.0363 µM) | 0.004 µg/mL (≈ 0.00484 µM) | 1 µg/mL (≈ 1.21 µM) | 0.25 µg/mL (≈ 0.303 µM) | 8 µg/mL (≈ 9.69 µM)
CO[C@H]1/C=C/O[C@@]2(C)Oc3c(C)c(O)c4c(=O)c(c5oc6cc(N(C)CC(C)C)cc(O)c6nc-5c4c3C2=O)NC(=O)/C(C)=C\C=C\[C@H](C)[C@H](O)[C@@H](C)[C@@H](O)[C@@H](C)[C@H](O)[C@@H]1C [Compound 128] | 0.015 µg/mL (≈ 0.0178 µM) | 0.002 µg/mL (≈ 0.00237 µM) | 0.5 µg/mL (≈ 0.592 µM) | 0.5 µg/mL (≈ 0.592 µM) | >8 µg/mL

Reference: patent US20070142392A1, “Uses of rifamycins” (ActivBiotics, Inc., priority 2005, published 2007)
